The source of these data is patent US10562898B2, “Substituted benzenesulfonamides as inhibitors of alpha-4 beta-7 integrin activity” (EA PHARMA CO., LTD., priority 2016, dated 2020).

Structures are written as SMILES. Where only a bound is given, the exact number is not on record here.

The assay concerns the target T1, α4β1 integrin (Homo sapiens, UniProt P05556+P13612).
T1 construct: a cell line Jurkat, which is known to express α4β1 integrin; endogenous in cells; host or cells: Jurkat (human T cell line)
Put plainly: VCAM-1/α4β1 integrin binding inhibitory activity evaluation test (Jurkat cells binding to VCAM-1/Fc). The assay is classed as cell-based. To be noted: recombinant human VCAM-1/Fc. Here is the method: (1) VCAM-1/α4β1 Integrin Binding Inhibitory Activity Evaluation Test
Each test substance was measured in terms of an ability to inhibit the VCAM-1 binding of a human T cell line, namely, a cell line Jurkat, which is known to express α4β1 integrin.
A solution of recombinant human VCAM-1/Fc (R&D Systems, Inc.) (1 μg/mL) diluted with a buffer A (carbonate buffer, pH 9.6) was placed in an amount of 50 μL/well in a 96-well microtiter plate, followed by incubation at 4° C. overnight. After the plate was washed with PBS once, 150 μL/well of Block Ace (Snow Brand Milk Products Co., Ltd.) was added, followed by incubation at room temperature for 2 hours. After removal, the plate was washed with PBS once.
Then, 100 μL of the Jurkat cells (2×10^6 cells/mL) and 100 μL of the test substance at each of various concentrations diluted with a binding buffer (DMEM containing 40 mM HEPES, 0.2% BSA, and 4 mM MnCl2) were added to the plate coated with the VCAM-1/Fc (5×10^5 cells/well), followed by incubation at 30° C. for 15 to 60 minutes. After the cells were bound to the wells, the plate was washed with PBS to remove unbound cells. A buffer C (PBS containing 1.5% Triton X-100) was added in an amount 50 μL/well to the plate to lyse the bound Jurkat cells. After 30 μL of a substrate buffer (Promega, CytoTox 96 Non-Radioactive Cytotoxicity Assay) was added to 30 μL of the cell lysate, a reaction was allowed to proceed at room temperature in the dark for 30 minutes. After 30 μL of a stop solution (Promega, CytoTox 96 Non-Radioactive Cytotoxicity Assay) was added to each, and then an absorbance at 490 nm was measured using a plate reader. The absorbance obtained here represents a detection result of an activity of lactate dehydrogenase (LDH) eluted in the supernatant of each well, that is, the absorbance is proportional to the number of Jurkat cells bound to the VCAM-1 and thus remaining on the plate. The test was performed in duplicate. Provided that the absorbance of a well containing no test substance was 100%, a cell binding rate with the test substance at each of the various concentrations was figured out, and a concentration IC50 which brought about 50% binding inhibition was calculated.

T1 sequence (P13612 34-1032): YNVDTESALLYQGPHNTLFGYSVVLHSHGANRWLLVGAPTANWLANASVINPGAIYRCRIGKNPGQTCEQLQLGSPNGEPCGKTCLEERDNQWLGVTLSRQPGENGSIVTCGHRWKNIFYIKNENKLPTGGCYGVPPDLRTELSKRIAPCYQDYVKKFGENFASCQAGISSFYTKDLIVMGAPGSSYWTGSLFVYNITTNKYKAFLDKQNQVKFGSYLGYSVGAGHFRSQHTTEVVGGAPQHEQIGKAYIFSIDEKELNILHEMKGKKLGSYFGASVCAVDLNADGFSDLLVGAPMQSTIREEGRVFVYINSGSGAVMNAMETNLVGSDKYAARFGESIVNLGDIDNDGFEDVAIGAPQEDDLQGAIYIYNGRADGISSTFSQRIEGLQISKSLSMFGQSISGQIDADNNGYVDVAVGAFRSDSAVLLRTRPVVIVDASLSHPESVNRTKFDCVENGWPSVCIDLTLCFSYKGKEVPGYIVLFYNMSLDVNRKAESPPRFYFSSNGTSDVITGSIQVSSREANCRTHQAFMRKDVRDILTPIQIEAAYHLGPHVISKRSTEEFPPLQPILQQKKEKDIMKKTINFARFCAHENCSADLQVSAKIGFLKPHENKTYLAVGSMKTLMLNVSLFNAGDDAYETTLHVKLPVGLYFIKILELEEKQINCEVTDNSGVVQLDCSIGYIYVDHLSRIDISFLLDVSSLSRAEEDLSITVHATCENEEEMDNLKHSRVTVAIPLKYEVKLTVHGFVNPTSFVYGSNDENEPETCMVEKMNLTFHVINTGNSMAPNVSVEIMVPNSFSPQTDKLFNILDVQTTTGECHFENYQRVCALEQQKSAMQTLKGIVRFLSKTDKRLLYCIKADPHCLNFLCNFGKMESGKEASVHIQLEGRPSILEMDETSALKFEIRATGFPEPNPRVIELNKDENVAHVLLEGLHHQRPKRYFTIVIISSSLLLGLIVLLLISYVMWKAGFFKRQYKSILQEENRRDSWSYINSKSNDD
T1 sequence (P05556 21-798): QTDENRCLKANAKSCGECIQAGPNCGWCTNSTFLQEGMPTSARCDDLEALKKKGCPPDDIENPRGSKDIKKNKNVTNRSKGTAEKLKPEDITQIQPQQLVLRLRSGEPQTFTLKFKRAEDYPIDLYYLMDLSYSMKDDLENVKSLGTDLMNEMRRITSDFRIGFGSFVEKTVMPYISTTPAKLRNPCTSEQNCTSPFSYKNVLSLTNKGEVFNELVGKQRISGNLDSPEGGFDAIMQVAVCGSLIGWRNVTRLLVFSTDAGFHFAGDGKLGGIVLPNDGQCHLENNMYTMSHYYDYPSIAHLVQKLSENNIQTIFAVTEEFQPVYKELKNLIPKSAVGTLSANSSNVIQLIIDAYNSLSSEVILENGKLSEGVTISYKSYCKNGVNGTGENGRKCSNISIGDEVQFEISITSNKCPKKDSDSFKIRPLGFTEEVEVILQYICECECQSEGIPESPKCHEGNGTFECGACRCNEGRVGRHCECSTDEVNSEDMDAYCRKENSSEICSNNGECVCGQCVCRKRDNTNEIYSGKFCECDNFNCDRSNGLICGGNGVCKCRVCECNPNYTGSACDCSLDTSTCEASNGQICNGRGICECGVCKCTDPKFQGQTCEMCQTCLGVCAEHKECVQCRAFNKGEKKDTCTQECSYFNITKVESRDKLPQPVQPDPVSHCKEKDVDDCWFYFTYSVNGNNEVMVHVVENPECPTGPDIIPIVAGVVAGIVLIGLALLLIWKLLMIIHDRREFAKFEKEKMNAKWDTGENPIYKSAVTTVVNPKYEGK

By IC50 is commonly meant the concentration at which inhibition is half-maximal. Regarding `Cn1c2c(c(=O)n(-c3ccc(C[C@H](NC(=O)c4cc(F)c(NS(=O)(=O)c5ccc(NC(=O)C(C)(C)C)cc5)cc4F)C(=O)O)cn3)c1=O)CCOC2` [Compound A40], the IC50 stood at 2.3 µM.

Take `CN1CCc2c(n(C)c(=O)n(-c3ccc(C[C@H](NC(=O)c4cc(F)c(NS(=O)(=O)c5ccc(NC(=O)C(C)(C)C)cc5)cc4F)C(=O)O)cc3)c2=O)C1` [Compound A41]: the IC50 amounted to 0.48 µM.

Take `Cn1ccc(=O)n(-c2ccc(C[C@H](NC(=O)c3cc(F)c(NS(=O)(=O)c4ccc(NC(=O)C(C)(C)C)cc4)cc3F)C(=O)O)cc2)c1=O` [Compound A42]: the IC50 worked out at 2.5 µM.

On to `Cn1cnc2c1c(=O)n(-c1ccc(C[C@H](NC(=O)c3cc(F)c(NS(=O)(=O)c4ccc(NC(=O)C(C)(C)C)cc4)cc3F)C(=O)O)cc1)c(=O)n2C` [Compound A43], for which the IC50 was 1.2 µM.

With `Cn1c2c(c(=O)n(-c3ccc(C[C@H](NC(=O)c4cc(F)c(NS(=O)(=O)c5ccc(NC(=O)C(C)(C)C)cc5)cc4F)C(=O)O)cn3)c1=O)COCC2` [Compound A44], the IC50 was found to be 3.4 µM.

Regarding `Cc1cc(=O)n(-c2ccc(C[C@H](NC(=O)c3cc(F)c(NS(=O)(=O)c4ccc(NC(=O)C(C)(C)C)cc4)cc3F)C(=O)O)cn2)c(=O)n1C` [Compound A45], the IC50 stood at 10 µM.

On to `Cc1cc(=O)n(-c2ccc(C[C@H](NC(=O)c3cc(F)c(NS(=O)(=O)c4ccc(NC(=O)C(C)(C)C)cc4)cc3F)C(=O)O)cc2)c(=O)n1C` [Compound A46], for which the IC50 was 1.8 µM.

For the compound `Cn1c2c(c(=O)n(-c3ccc(C[C@H](NC(=O)c4cc(F)c(NS(=O)(=O)c5ccc(NC(=O)C(C)(C)C)cc5)cc4F)C(=O)O)nc3)c1=O)CCCC2` [Compound A47], the IC50 came out at 4.1 µM.

`Cc1c(C)n(C(C)C)c(=O)n(-c2ccc(C[C@H](NC(=O)c3cc(F)c(NS(=O)(=O)c4ccc(NC(=O)C(C)(C)C)cc4)cc3F)C(=O)O)cc2)c1=O` [Compound A48]: the IC50 came out at 11 µM.

With `Cc1c(C)n(C)c(=O)n(-c2ccc(C[C@H](NC(=O)c3cc(F)c(NS(=O)(=O)c4cccc(NC(=O)C(C)(C)C)c4)cc3F)C(=O)O)cc2)c1=O` [Compound A49], the IC50 was 1.8 µM.

As for `Cc1c(C)n(C)c(=O)n(-c2ccc(C[C@H](NC(=O)c3cc(F)c(NS(=O)(=O)c4cccc(NC(=O)C(C)(C)C)c4)cc3F)C(=O)O)cn2)c1=O` [Compound A50], the IC50 is 7.1 µM.

Consider `Cc1c(CO)c(=O)n(-c2ccc(C[C@H](NC(=O)c3cc(F)c(NS(=O)(=O)c4ccc(NC(=O)C(C)(C)C)cc4)cc3F)C(=O)O)cc2)c(=O)n1C` [Compound A51], for which the IC50 came out at 5.5 µM.

`Cn1c2c(c(=O)n(-c3ccc(C[C@H](NC(=O)c4cc(F)c(NS(=O)(=O)c5ccc(NC(=O)C(C)(C)C)cc5)cc4F)C(=O)O)cn3)c1=O)CCCC2` [Compound A52]: the IC50 was found to be 2.2 µM.

In the case of `Cn1ccc(=O)n(-c2ccc(C[C@H](NC(=O)c3cc(F)c(NS(=O)(=O)c4ccc(NC(=O)C(C)(C)C)cc4)cc3F)C(=O)O)cn2)c1=O` [Compound A53], the IC50 was > 31.2 µM.

Take `Cc1cn(C)c(=O)n(-c2ccc(C[C@H](NC(=O)c3cc(F)c(NS(=O)(=O)c4ccc(NC(=O)C(C)(C)C)cc4)cc3F)C(=O)O)cn2)c1=O` [Compound A54]: the IC50 worked out at 29 µM.

`Cn1ccc(=O)n(-c2ccc(C[C@H](NC(=O)c3cc(F)c(NS(=O)(=O)c4ccc(NC(=O)C5(C(F)(F)F)CC5)cc4)cc3F)C(=O)O)cn2)c1=O` [Compound A55]: the IC50 is > 31.2 µM.

In the case of `Cc1cn(C)c(=O)n(-c2ccc(C[C@H](NC(=O)c3cc(F)c(NS(=O)(=O)c4ccc(NC(=O)C5(C(F)(F)F)CC5)cc4)cc3F)C(=O)O)cn2)c1=O` [Compound A56], the IC50 was found to be 19 µM.

On to `Cn1ccc(=O)n(-c2ccc(C[C@H](NC(=O)c3cc(F)c(NS(=O)(=O)c4ccc(NC(=O)C(C)(C)C(F)(F)F)cc4)cc3F)C(=O)O)cn2)c1=O` [Compound A57], for which the IC50 turned out to be 25 µM.

Consider `Cc1cn(C)c(=O)n(-c2ccc(C[C@H](NC(=O)c3cc(F)c(NS(=O)(=O)c4ccc(NC(=O)C(C)(C)C(F)(F)F)cc4)cc3F)C(=O)O)cn2)c1=O` [Compound A58], for which the IC50 was 14 µM.

As to `Cn1ccc(=O)n(-c2ccc(C[C@H](NC(=O)c3cc(F)c(NS(=O)(=O)c4ccc(NC(=O)C5(C#N)CC5)cc4)cc3F)C(=O)O)cn2)c1=O` [Compound A59], the IC50 was > 31.2 µM.

For the compound `Cc1cn(C)c(=O)n(-c2ccc(C[C@H](NC(=O)c3cc(F)c(NS(=O)(=O)c4ccc(NC(=O)C5(C#N)CC5)cc4)cc3F)C(=O)O)cn2)c1=O` [Compound A60], the IC50 amounted to 12 µM.

With `CCC(CC)C(=O)Nc1ccc(S(=O)(=O)Nc2cc(F)c(C(=O)N[C@@H](Cc3ccc(-n4c(=O)ccn(C)c4=O)nc3)C(=O)O)cc2F)cc1` [Compound A61], the IC50 is > 31.2 µM.

As to `Cn1ccc(=O)n(-c2ccc(C[C@H](NC(=O)c3cc(F)c(NS(=O)(=O)c4ccc(NC(=O)C(C)(C)CO)cc4)cc3F)C(=O)O)cn2)c1=O` [Compound A62], the IC50 was > 31.2 µM.

For `Cc1cn(C)c(=O)n(-c2ccc(C[C@H](NC(=O)c3cc(F)c(NS(=O)(=O)c4ccc(NC(=O)C(C)(C)CO)cc4)cc3F)C(=O)O)cn2)c1=O` [Compound A63], the IC50 was > 31.2 µM.

For the compound `Cn1ccc(=O)n(-c2ccc(C[C@H](NC(=O)c3cc(F)c(NS(=O)(=O)c4ccc(NC(=O)C5CCCC5)cc4)cc3F)C(=O)O)cn2)c1=O` [Compound A64], the IC50 was > 31.2 µM.

With `Cc1cn(C)c(=O)n(-c2ccc(C[C@H](NC(=O)c3cc(F)c(NS(=O)(=O)c4ccc(NC(=O)C5CCCC5)cc4)cc3F)C(=O)O)cn2)c1=O` [Compound A65], the IC50 worked out at 21 µM.

For the compound `Cn1c(C(F)(F)F)cc(=O)n(-c2ccc(C[C@H](NC(=O)c3cc(F)c(NS(=O)(=O)c4ccc(NC(=O)C(C)(C)C)cc4)cc3F)C(=O)O)cn2)c1=O` [Compound A66], the 50% inhibitory concentration (IC50) stood at 19 µM.

Turning to `Cn1cc(C(F)(F)F)c(=O)n(-c2ccc(C[C@H](NC(=O)c3cc(F)c(NS(=O)(=O)c4ccc(NC(=O)C(C)(C)C)cc4)cc3F)C(=O)O)cn2)c1=O` [Compound A67], the IC50 stood at 19 µM.

As to `Cc1cn(C)c(=O)n(-c2ccc(C[C@H](NC(=O)c3cc(F)c(NS(=O)(=O)c4ccc(NC(=O)C#CC(C)(C)C)cc4)cc3F)C(=O)O)cn2)c1=O` [Compound A68], the IC50 was determined as 2.3 µM.

`Cc1cn(C)c(=O)n(-c2ccc(C[C@H](NC(=O)c3cc(F)c(NS(=O)(=O)c4ccc(NC(=O)C(C)(C)C)cc4)cc3F)C(=O)O)nc2)c1=O` [Compound A69]: the IC50 worked out at 13 µM.

In the case of `Cn1ccc(=O)n(-c2ccc(C[C@H](NC(=O)c3cc(F)c(NS(=O)(=O)c4ccc(NC(=O)C(C)(C)C)cc4)cc3F)C(=O)O)nc2)c1=O` [Compound A70], the IC50 was determined as 38 µM.

With `Cc1cn(C)c(=O)n(-c2ccc(C[C@H](NC(=O)c3cc(F)c(NS(=O)(=O)c4ccc(NC(=O)C(C)C)cc4)cc3F)C(=O)O)cn2)c1=O` [Compound A71], the IC50 was found to be 15 µM.

Take `Cc1cc(=O)n(-c2ccc(C[C@H](NC(=O)c3cc(F)c(NS(=O)(=O)c4ccc(NC(=O)C(C)(C)C)cc4)cc3F)C(=O)O)nc2)c(=O)n1C` [Compound A72]: the IC50 was found to be 9.3 µM.

Take `Cc1cn(C)c(=O)n(-c2ccc(C[C@H](NC(=O)c3cc(F)c(NS(=O)(=O)c4ccc(NC(=O)C(C)(C)C)s4)cc3F)C(=O)O)cn2)c1=O` [Compound A73]: the IC50 amounted to 21 µM.

Regarding `Cc1cn(C)c(=O)n(-c2ccc(C[C@H](NC(=O)c3cc(F)c(NS(=O)(=O)c4ccc5c(NC(=O)C(C)(C)C)c[nH]c5c4)cc3F)C(=O)O)cn2)c1=O` [Compound A74], the IC50 was found to be 7.4 µM.

For `CN1CCC(=O)N(c2ccc(C[C@H](NC(=O)c3cc(F)c(NS(=O)(=O)c4ccc(NC(=O)C(C)(C)C)cc4)cc3F)C(=O)O)cn2)C1=O` [Compound A75, (2S)-2-[2,5-difluoro-4-[(4-pivalamidophenyl)sulfonamide]benzamido]-3-[6-(3-methyl-2,6-dioxotetrahydropyrimidin-1(2H)-yl)pyridin-3-yl]propanoic acid], the IC50 was found to be 32 µM.

For the compound `Cc1cn(C)c(=O)n(-c2ccc(C[C@H](NC(=O)c3cc(F)c(NS(=O)(=O)c4cc5cc(NC(=O)C(C)(C)C)ccc5[nH]4)cc3F)C(=O)O)cn2)c1=O` [Compound A76], the concentration for half-maximal inhibition (IC50) turned out to be 25 µM.

Consider `Cc1cn(C)c(=O)n(-c2ccc(C[C@H](NC(=O)c3cc(F)c(NS(=O)(=O)c4c[nH]c5cc(NC(=O)C(C)(C)C)ccc45)cc3F)C(=O)O)cn2)c1=O` [Compound A77], for which the IC50 worked out at 7.1 µM.
